Experimental data as given in ChEMBL document CHEMBL1201862, “PubChem BioAssay data set” (2004).
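These data come from cells grown in 96-well plates and exposed to compound for 48 hours at five concentrations. Here, GI50 denotes the concentration required for 50% inhibition of growth.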 Active and inactive are the calls of the source. Cut-off read from the data, not from the text of the source: active = GI50 up to about 1.1 µM and inactive = higher.

Tests used:
Test in all cases: NCI tumour cell line growth inhibition, 48 h
SNB-75 = system: SNB-75
A498 = system: A498
SF-268 = system: SF-268
HCC 2998 = system: HCC 2998
EKVX = system: EKVX
MOLT-4 = system: MOLT-4
IGROV-1 = system: IGROV-1
UO-31 = system: UO-31
SK-MEL-5 = system: SK-MEL-5
HOP-18 = system: HOP-18
HCT-116 = system: HCT-116
OVCAR-3 = system: OVCAR-3
NCI-H226 = system: NCI-H226
ACHN = system: ACHN
UACC-257 = system: UACC-257
MDA-MB-435 = system: MDA-MB-435
MCF7 = system: MCF7
NCI/ADR-RES = system: NCI/ADR-RES
PC-3 = system: PC-3
BT-549 = system: BT-549

N=C(N)NCCCC(Nc1c2ccccc2[n+]([O-])c2ccccc12)C(=O)O (configuration not stated)
GI50 (SNB-75): 34.8 µM (inactive) | GI50 (A498): > 100 µM (inactive) | GI50 (SF-268): 56.4 µM (inactive) | GI50 (HCC 2998): 27.2 µM (inactive) | GI50 (EKVX): 96.6 µM (inactive) | GI50 (MOLT-4): 37.8 µM (inactive) | GI50 (IGROV-1): > 100 µM (inactive) | GI50 (UO-31): 30.8 µM (inactive) | GI50 (SK-MEL-5): 22.6 µM (inactive) | GI50 (HOP-18): 33.3 µM (inactive) | GI50 (HCT-116): 24.9 µM (inactive) | GI50 (OVCAR-3): 63.4 µM (inactive) | GI50 (NCI-H226): 70.6 µM (inactive) | GI50 (ACHN): 23.1 µM (inactive)

COC(=O)N/N=C/c1oc(-c2cccc([N+](=O)[O-])c2)c(-c2cccc([N+](=O)[O-])c2)c1[N+](=O)[O-]
GI50 (SF-268): > 100 µM (inactive) | GI50 (HCC 2998): > 100 µM (inactive) | GI50 (EKVX): > 100 µM (inactive) | GI50 (MOLT-4): 24.2 µM (inactive) | GI50 (IGROV-1): > 100 µM (inactive) | GI50 (UO-31): > 100 µM (inactive) | GI50 (SK-MEL-5): > 100 µM (inactive) | GI50 (HOP-18): > 100 µM (inactive) | GI50 (HCT-116): > 100 µM (inactive) | GI50 (OVCAR-3): > 100 µM (inactive) | GI50 (UACC-257): > 100 µM (inactive) | GI50 (ACHN): > 100 µM (inactive)

CCCCCCCCCOC(=S)NC
GI50 (SNB-75): 26.1 µM (inactive) | GI50 (A498): 20.1 µM (inactive) | GI50 (SF-268): 19.5 µM (inactive) | GI50 (HCC 2998): 19.1 µM (inactive) | GI50 (EKVX): 28.1 µM (inactive) | GI50 (MOLT-4): 17.1 µM (inactive) | GI50 (IGROV-1): 24.2 µM (inactive) | GI50 (UO-31): 11.2 µM (inactive) | GI50 (SK-MEL-5): 19.1 µM (inactive) | GI50 (HOP-18): 19.6 µM (inactive) | GI50 (OVCAR-3): 19.9 µM (inactive) | GI50 (ACHN): 19.3 µM (inactive)

Cc1ccccc1-n1c(=O)c2ncn(CCCl)c2n(-c2ccccc2C)c1=S
GI50 (MDA-MB-435): > 100 µM (inactive) | GI50 (SNB-75): > 100 µM (inactive) | GI50 (A498): > 100 µM (inactive) | GI50 (SF-268): > 100 µM (inactive) | GI50 (HCC 2998): > 100 µM (inactive) | GI50 (MCF7): > 100 µM (inactive) | GI50 (EKVX): > 100 µM (inactive) | GI50 (MOLT-4): > 100 µM (inactive) | GI50 (IGROV-1): > 100 µM (inactive) | GI50 (NCI/ADR-RES): > 100 µM (inactive) | GI50 (UO-31): > 100 µM (inactive) | GI50 (PC-3): 73.1 µM (inactive) | GI50 (SK-MEL-5): > 100 µM (inactive) | GI50 (BT-549): > 100 µM (inactive) | GI50 (HCT-116): > 100 µM (inactive) | GI50 (OVCAR-3): > 100 µM (inactive) | GI50 (UACC-257): > 100 µM (inactive) | GI50 (NCI-H226): > 100 µM (inactive) | GI50 (ACHN): > 100 µM (inactive)

NC(Cc1cccnn1)C(=O)O (configuration not stated)
GI50 (MDA-MB-435): > 100 µM (inactive) | GI50 (SNB-75): > 100 µM (inactive) | GI50 (A498): > 100 µM (inactive) | GI50 (SF-268): > 100 µM (inactive) | GI50 (HCC 2998): > 100 µM (inactive) | GI50 (MCF7): > 100 µM (inactive) | GI50 (EKVX): > 100 µM (inactive) | GI50 (MOLT-4): > 100 µM (inactive) | GI50 (IGROV-1): > 100 µM (inactive) | GI50 (NCI/ADR-RES): > 100 µM (inactive) | GI50 (UO-31): > 100 µM (inactive) | GI50 (PC-3): > 100 µM (inactive) | GI50 (SK-MEL-5): > 100 µM (inactive) | GI50 (BT-549): > 100 µM (inactive) | GI50 (HCT-116): > 100 µM (inactive) | GI50 (OVCAR-3): > 100 µM (inactive) | GI50 (UACC-257): > 100 µM (inactive) | GI50 (NCI-H226): > 100 µM (inactive) | GI50 (ACHN): > 100 µM (inactive)

CCCCCC1=C2C(c3ccc(OC)cc3)=C(N)C(c3ccc(OC)cc3)=C3NC(=O)C(C=C1)C32 (configuration not stated)
GI50 (MDA-MB-435): 37.3 µM (inactive) | GI50 (SNB-75): 32.8 µM (inactive) | GI50 (A498): 43 µM (inactive) | GI50 (SF-268): 11.8 µM (inactive) | GI50 (HCC 2998): > 100 µM (inactive) | GI50 (MCF7): 84.3 µM (inactive) | GI50 (EKVX): 92.3 µM (inactive) | GI50 (MOLT-4): 56.4 µM (inactive) | GI50 (IGROV-1): 28.1 µM (inactive) | GI50 (NCI/ADR-RES): > 100 µM (inactive) | GI50 (UO-31): 54.3 µM (inactive) | GI50 (PC-3): 27.7 µM (inactive) | GI50 (SK-MEL-5): > 100 µM (inactive) | GI50 (BT-549): 96.4 µM (inactive) | GI50 (HCT-116): 57.5 µM (inactive) | GI50 (OVCAR-3): 57.1 µM (inactive) | GI50 (UACC-257): > 100 µM (inactive) | GI50 (NCI-H226): 21.9 µM (inactive) | GI50 (ACHN): > 100 µM (inactive)

CC(=O)N(O)[C@@H]1CC[C@H](n2cnc3c(N)ncnc32)C1
GI50 (MDA-MB-435): > 100 µM (inactive) | GI50 (SNB-75): > 100 µM (inactive) | GI50 (A498): > 100 µM (inactive) | GI50 (SF-268): > 100 µM (inactive) | GI50 (HCC 2998): > 100 µM (inactive) | GI50 (MCF7): > 100 µM (inactive) | GI50 (EKVX): > 100 µM (inactive) | GI50 (MOLT-4): > 100 µM (inactive) | GI50 (IGROV-1): > 100 µM (inactive) | GI50 (NCI/ADR-RES): > 100 µM (inactive) | GI50 (UO-31): > 100 µM (inactive) | GI50 (PC-3): > 100 µM (inactive) | GI50 (SK-MEL-5): > 100 µM (inactive) | GI50 (BT-549): > 100 µM (inactive) | GI50 (HCT-116): > 100 µM (inactive) | GI50 (OVCAR-3): > 100 µM (inactive) | GI50 (UACC-257): > 100 µM (inactive) | GI50 (NCI-H226): > 100 µM (inactive) | GI50 (ACHN): > 100 µM (inactive)

CC(=O)Nc1ccc(/C=C/C(=O)c2sc(-c3cccnc3)nc2C)cc1
GI50 (SNB-75): > 100 µM (inactive) | GI50 (A498): > 100 µM (inactive) | GI50 (SF-268): > 100 µM (inactive) | GI50 (HCC 2998): > 100 µM (inactive) | GI50 (EKVX): > 100 µM (inactive) | GI50 (MOLT-4): > 100 µM (inactive) | GI50 (IGROV-1): > 100 µM (inactive) | GI50 (UO-31): > 100 µM (inactive) | GI50 (SK-MEL-5): > 100 µM (inactive) | GI50 (HOP-18): > 100 µM (inactive) | GI50 (OVCAR-3): > 100 µM (inactive) | GI50 (UACC-257): > 100 µM (inactive) | GI50 (NCI-H226): > 100 µM (inactive) | GI50 (ACHN): > 100 µM (inactive)

CC[C@@]1(O)C(=O)OCc2c1cc1n(c2=O)Cc2c-1nc1ccccc1c2/C=N\NC(=O)C(N)CS (some centres not stated)
GI50 (MDA-MB-435): 5.36 µM (inactive) | GI50 (SNB-75): 0.573 µM (active) | GI50 (A498): 2.55 µM (inactive) | GI50 (SF-268): 0.186 µM (active) | GI50 (HCC 2998): 9.46 µM (inactive) | GI50 (MCF7): 0.206 µM (active) | GI50 (EKVX): 47 µM (inactive) | GI50 (MOLT-4): 0.0794 µM (active) | GI50 (IGROV-1): 6.7 µM (inactive) | GI50 (NCI/ADR-RES): 1.71 µM (inactive) | GI50 (UO-31): 0.989 µM (active) | GI50 (PC-3): 3.52 µM (inactive) | GI50 (SK-MEL-5): 1.13 µM (inactive) | GI50 (BT-549): 10.8 µM (inactive) | GI50 (HCT-116): 1.7 µM (inactive) | GI50 (OVCAR-3): 13.2 µM (inactive) | GI50 (UACC-257): 7.26 µM (inactive) | GI50 (NCI-H226): 1.66 µM (inactive) | GI50 (ACHN): 0.262 µM (active)
